Results reported in patent US6586437B2, “(S)-hydroxynefazodone antipsychotic therapy” (Sepracor Inc., priority 1999, dated 2003).
Counter-ions that a name gives are not always drawn. Each block holds one molecule with its values, some of them ahead of it.

Legend:
[1] = test system: alpha1-adrenergic receptors; settings: cited from earlier work
α1 Receptor = assay: α1 receptor binding; settings: read-out: α1 Receptor Binding IC50, Alpha1
[2] = test system: beta adrenergic receptors; settings: in vitro binding studies; cited from earlier work
5-HT1A receptors = target: T1, 5-HT1A receptors (Homo sapiens, UniProt P08908); settings: in vitro binding studies; cited from earlier work
T1 sequence (P08908 1-422): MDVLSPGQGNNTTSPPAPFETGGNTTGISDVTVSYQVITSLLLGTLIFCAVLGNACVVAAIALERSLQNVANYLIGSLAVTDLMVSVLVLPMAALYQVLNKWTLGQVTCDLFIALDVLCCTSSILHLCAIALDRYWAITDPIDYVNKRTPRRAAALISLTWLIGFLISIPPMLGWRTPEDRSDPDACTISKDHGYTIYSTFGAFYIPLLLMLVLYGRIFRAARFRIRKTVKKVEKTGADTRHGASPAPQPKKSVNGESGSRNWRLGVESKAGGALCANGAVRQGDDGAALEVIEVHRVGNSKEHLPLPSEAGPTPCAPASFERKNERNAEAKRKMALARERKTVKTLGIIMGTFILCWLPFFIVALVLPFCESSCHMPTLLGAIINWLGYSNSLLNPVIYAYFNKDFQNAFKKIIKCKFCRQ

cholinergic receptors = settings: in vitro binding studies; cited from earlier work
dopaminergic receptors = settings: in vitro binding studies; cited from earlier work
[3] = test system: alpha2 adrenergic receptors; settings: in vitro binding studies; cited from earlier work
benzodiazepine receptors = settings: in vitro binding studies; cited from earlier work
[4] = cited from earlier work
[5] = target: T2, norepinephrine uptake, rat hypothalamus synaptosomes (Rattus norvegicus, UniProt Q9WTR4); assay: Norepinephrine uptake functional assay (synaptosomes); format: biochemical, male Wistar rat; settings: [3H]-norepinephrine, read-out: Monoamine Neuronal Transport IC50, NE uptake
T2 construct: synaptosomes isolated at Cerep in a 0.32 M sucrose buffer from a male Wistar rat hypothalamus; from tissue; host or cells: male Wistar rat hypothalamus synaptosomes
Procedure: Norepinephrine Uptake Functional Assay
Characterization of norepinephrine uptake is performed using synaptosomes isolated at Cerep in a 0.32 M sucrose buffer from a male Wistar rat hypothalamus. The uptake of radiolabeled norepinephrine by synaptosomes (100 μg of proteins/point) is allowed by incubating them for 20 minutes at 37° C. in presence of test compounds and [3H]-norepinephrine (0.1 μCi/point). The experiment is performed in a deep well.
Synaptosomes and [3H]-norepinephrine are prepared in a Krebs buffer pH 7.4 containing 25 mM NaHCO3, 11 mM glucose and 50 μM ascorbic acid. This incubation buffer is oxygenated during 5 minutes before incubation. Basal control is incubated for 20 minutes at 4° C. in order to avoid any uptake. Following this incubation the uptake is stopped by filtration through an “unifilter 96-wells GFB ” Packard plate washed with Krebs buffer containing 25 mM NaHCO3 in order to eliminate the free [3H]-norepinephrine. The radioactivity associated to the synaptosomes retained onto the unifilter corresponding to the uptake is then measured with a microplate scintillation counter Topcount, Packard using a scintillation liquid microscint 0, Packard.
[See Perovics and Müller, op.cit. (1995).]

T2 sequence (Q9WTR4 1-597): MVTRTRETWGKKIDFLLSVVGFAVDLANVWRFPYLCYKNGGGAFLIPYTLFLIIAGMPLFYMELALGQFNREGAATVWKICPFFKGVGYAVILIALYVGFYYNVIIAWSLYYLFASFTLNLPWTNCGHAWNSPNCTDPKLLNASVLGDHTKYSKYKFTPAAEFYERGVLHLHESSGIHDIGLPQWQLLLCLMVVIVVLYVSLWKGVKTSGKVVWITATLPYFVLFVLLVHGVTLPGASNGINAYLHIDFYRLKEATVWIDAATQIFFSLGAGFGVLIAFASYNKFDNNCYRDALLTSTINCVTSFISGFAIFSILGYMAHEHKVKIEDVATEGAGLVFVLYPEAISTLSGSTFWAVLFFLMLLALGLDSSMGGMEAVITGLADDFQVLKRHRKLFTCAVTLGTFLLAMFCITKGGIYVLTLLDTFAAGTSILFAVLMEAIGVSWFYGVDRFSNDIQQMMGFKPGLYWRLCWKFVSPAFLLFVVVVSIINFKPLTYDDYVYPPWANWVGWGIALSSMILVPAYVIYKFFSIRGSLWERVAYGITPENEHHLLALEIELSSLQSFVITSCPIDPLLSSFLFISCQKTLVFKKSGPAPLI

SMILES: CC(O)c1nn(CCCN2CCN(c3cccc(Cl)c3)CC2)c(=O)n1CCOc1ccccc1 (racemic) [(RS)—OH, 2-[3-[4-(3-chlorophenyl)1-piperazinyl]propyl]-5-(1-hydroxyethyl)-2,4-dihydro-4-(phenoxyethyl)-3H-1,2,4-triazol-3-one]
IC50 (α1 Receptor): 381 nM | IC50 [5]: 1000 nM

SMILES: C[C@@H](O)c1nn(CCCN2CCN(c3cccc(Cl)c3)CC2)c(=O)n1CCOc1ccccc1 [(R)—OH, (R)-Hydroxynefazodone hydrochloride]
IC50 (α1 Receptor): 367 nM | IC50 [5]: 1200 nM

SMILES: CCc1nn(CCCN2CCN(c3cccc(Cl)c3)CC2)c(=O)n1CCOc1ccccc1 [Nefazodone hydrochloride]
absolute bioavailability ([4]; low and variable because of extensive metabolism): about 20%

More lines, in order of falling IC50 (α1 Receptor), values ahead:

IC50 (α1 Receptor): 419 nM | IC50 [5]: 1500 nM
SMILES: C[C@H](O)c1nn(CCCN2CCN(c3cccc(Cl)c3)CC2)c(=O)n1CCOc1ccccc1 [(S)—OH, (S)-2-{3-[4-(3-Chlorophenyl)-1-piperazinyl]propyl}-4-(2-phenoxyethyl)-5-[1-(hydroxy)-ethyl]-2,4-dihydro-[1,2,4]triazol-3-one]

IC50 (α1 Receptor): 306 nM
SMILES: CCc1nn(CCCN2CCN(c3cccc(Cl)c3)CC2)c(=O)n1CCOc1ccccc1 [Nefazodone]
effect on alpha1-adrenergic receptors [1]: antagonize | affinity for beta adrenergic receptors [2]: no significant affinity | affinity for 5-HT1A receptors (5-HT1A receptors): no significant affinity | affinity for cholinergic receptors (cholinergic receptors): no significant affinity | affinity for dopaminergic receptors (dopaminergic receptors): no significant affinity | affinity for alpha2 adrenergic receptors [3]: no significant affinity | affinity for benzodiazepine receptors (benzodiazepine receptors): no significant affinity | half-life ([4]; in vivo): 2 to 4 h | time of peak plasma concentrations ([4]; in vivo): about one
